The results in this text go back to publication PMC7913925, “Design and Evaluation of a Polypeptide That Mimics the Integrin Binding Site for EDA Fibronectin to Block Profibrotic Cell Activity” (International Journal of Molecular Sciences, 2021).

Assay [1] has as its target FN-EDA (peptide sharing sequence with the C-C′ loop of EDA-FN) (Homo sapiens, UniProt P02751). The assay is described as follows: Isothermal calorimetry, AF38Pep with FN-EDA. The format is binding. The conditions noted are these: 25 °C, pH 7. Here is the method:
(§1) Custom designed peptides were resuspended in sterile-filtered HEPES buffered saline (140 mM NaCl, 1.5 mM Na2HPO4, 50 mM HEPES; pH 7). The larger EDA-FN binding peptide was diluted to 15 µM, degassed and added to the calorimetry chamber well. Three smaller test peptides (fibronectin EDA-peptide, FN-EDA; fibronectin RGD-peptide, FN-RGD and collagen I RGD-peptide, COL-RGD) were diluted to 300 µM, degassed and each was separately loaded into the calorimetry injection needle. The chamber well temperature was kept consistent at 25 °C. Blank buffer was used to replace either the well peptide or the injection needle peptide to account for background heat generation. Isothermal titration calorimetry was performed using a MicroCal iTC200 (Malvern Panalytical, Malvern, UK) and dissociation constant (KD) and association constant (KA) were calculated using the one set of sites model fitting (with number of binding sites assumed to be 1) in MicroCal Origin Software v8.5 (Malvern Panalytical).
On the technique in general: ITC needs no label: the signal is the heat of the interaction.

Assay [2] has as its target FN-RGD (RGD motif of fibronectin) (Homo sapiens, UniProt P02751). The assay is described as follows: Isothermal calorimetry, AF38Pep with FN-RGD. The format is binding. The conditions noted are these: 25 °C, pH 7. How it is done: as §1
Assay [3] concerns human HFL1 lung fibroblast cells, α-SMA mRNA. Put plainly: α-SMA mRNA expression (qRT-PCR) in TGF-β1-treated HFL1. The assay is classed as cell-based. How it is done: HFL1 cells were cultured in Kaighn’s modified Ham’s F-12 (F-12K) medium (Sigma-Aldrich) containing NaHCO3 and HEPES buffered to pH 7. Cells were grown to confluence in T75 culture flasks in the presence of 10% fetal bovine serum (FBS; Gibco, Thermo Fisher Scientific, Waltham, MA, USA). HFL1 cells were subcultured using 0.05% trypsin at a ratio of 1:3. NIH/3T3 cells were cultured in Dulbecco’s Modified Eagle Medium (DMEM; HyClone, Thermo Fisher Scientific) containing 100 U/mL penicillin and 100 μg/mL streptomycin. Cells were grown to confluence in T75 culture flasks in the presence of 10% FBS. NIH/3T3 cells were subcultured using 0.05% trypsin/EDTA at a ratio of 1:3. All cells were maintained at 37 °C and 5% CO2, and growth medium was replenished every 3 days until experimentation. Cells were growth-arrested in serum-free medium for 48 h before experiments, and all experiments were performed under serum-free conditions using cells between passages 3 and 8.
Reverse transcription (RT) and real-time quantitative PCR (qRT-PCR) were used to assess ACTA2/Acta2, Col1a1, Col3a1, Fn1, Eda-Fn1, Mmp9, Tgfb1, Ltbp1, Hic5, and Mrtfa mRNA expressions. Custom PCR primers were designed in-house (Table 2) and then synthesized by BGI (Beijing, China). […]
For orientation: Real-time PCR tracks product formation cycle by cycle.

Assay [4] concerns vascular cell adhesion protein-1 (VCAM1). Put plainly: Western blot total protein VCAM1. The format is cell-based. Conditions: 48 h TGF-β1, AF38Pep or TGF-β1+AF38Pep. For orientation: In western blotting, separated proteins are transferred to a membrane and probed.
Another assay concerns EDA-FN. Put plainly: Western blot total protein EDA-FN. The assay is classed as cell-based. Conditions: 48 h, TGF-β1+AF38Pep.
The subject of assay [5] is Mmp9 mRNA in NIH/3T3 fibroblasts. The assay is described as follows: qRT-PCR Mmp9 mRNA. The format is cell-based, mouse. The conditions noted are these: 48 h, TGF-β1 10 ng/mL. Here is the method:
(§2) Reverse transcription (RT) and real-time quantitative PCR (qRT-PCR) were used to assess ACTA2/Acta2, Col1a1, Col3a1, Fn1, Eda-Fn1, Mmp9, Tgfb1, Ltbp1, Hic5, and Mrtfa mRNA expressions. Custom PCR primers were designed in-house (Table 2) and then synthesized by BGI (Beijing, China). Cells were grown in 6-well culture plates and washed with phosphate buffered saline (PBS) before lysis with TRIzon Reagent (CWBio, Beijing, China) and total RNA purification according to the manufacturer’s protocol. Reverse transcription was carried using the TransScript First-Strand cDNA Synthesis SuperMix kit according to the manufacturer’s protocol (TransGen, Beijing, China), using the random primer method for the initiation of cDNA synthesis. Nuclease-free H2O replaced the RNA sample to serve as a negative control for the reverse transcription reaction. For qRT-PCR, 10 µL 2× TransStart Top Green qPCR SuperMix was added to each well of a 96-well PCR plate containing 0.4 µL forward primer, 0.4 µL reverse primer, […], and nuclease-free water to a total volume of 20 µL. The qRT-PCR reaction was completed using a CFX96 Real-Time PCR Detection System (Bio-Rad Laboratories, Hercules, CA, USA). Amplification used the following parameters: 94 °C for 30 s, followed by 40 cycles of 94 °C for 5 s, 55 °C for 15 s, 72 °C for 10 s, and then a dissociation stage (melt-curve). […]

Assay [6] deals with Tgfb1 mRNA in NIH/3T3 fibroblasts. Put plainly: qRT-PCR Tgfb1 mRNA. The assay is classed as cell-based, mouse. The conditions noted are these: 48 h, TGF-β1 10 ng/mL. How it is done:
as §2

Assay [7] deals with Hic5 mRNA in NIH/3T3 fibroblasts. The assay is described as follows: qRT-PCR Hic5 mRNA. The assay is classed as cell-based, mouse. The conditions noted are these: 48 h, TGF-β1 10 ng/mL. Here is the method: as §2
Assay [8] has as its system Mrtfa mRNA in NIH/3T3 fibroblasts. The assay is described as follows: qRT-PCR Mrtfa mRNA. The format is cell-based, mouse. The conditions noted are these: 48 h, TGF-β1 10 ng/mL. Here is the method:
as §2

For a further assay, the system named is Col3a1 mRNA. The assay is described as follows: qRT-PCR Col3a1 mRNA. The assay is classed as cell-based, mouse. Here is the method: as §2
Another assay deals with Fn1 mRNA. Put plainly: qRT-PCR Fn1 mRNA. The assay is classed as cell-based, mouse. How it is done: as §2
For another assay, the system named is Eda-Fn1 mRNA. The assay is described as follows: qRT-PCR Eda-Fn1 mRNA. The format is cell-based, mouse. Here is the method:
as §2

For assay [9], the system named is NIH/3T3 cells, total collagen. Put plainly: Hydroxyproline assay, total collagen synthesis. The conditions noted are these: 48 h, TGF-β1 + AF38Pep; % of cells that only received TGF-β1. The format is cell-based, mouse. How it is done:
Approximately 4 × 10^6 of TGF-β1- and/or AF38Pep-treated NIH/3T3 fibroblast cells were harvested and homogenized in 1:1 conditioned medium to HCl (10N), before incubation at 120 °C for 24 h or until complete sample hydrolyzation. Cell-associated and soluble collagen contents were assessed using the Chondrex Hydroxyproline Assay kit (Chondrex, Redmond, WA, USA) according to the manufacturer’s protocol. In brief, 10 µL of sample, standard or blank control solution was added in duplicate to a 96-well clear-bottomed absorbance plate. Next, 100 µL of 1× chloramine-T solution was added to the wells and incubated at room temperature (RT) for 20 min. After incubation, 100 µL 1× DMAB solution was added to the wells and incubated at 60 °C for 30 min, with mild agitation at 5 min intervals. The plate O.D. values were read at 540 nm and sample values were compared to the values of the standard curve. The total collagen content was determined using the following equation:Collagen level (µg/mL) = Hydroxyproline level (µg/mL) × (100/13.5)

Bridges are numbered along the chain shown (N, C = ends). Where no end group is shown, it is not given here.

Consider “VMPYISTTPAKPCTSENCGNSWYGGFKSKNENKIYFIN (disulfide 13-18 (inferred)) [AF38Pep]”, for which the “ITC interaction (thermogram)” value was “there was a detectable interaction between AF38Pep and FN-EDA” in [1]; “not between AF38Pep and FN-RGD or COL-RGD” in assay [2]. For the same sequence, the “attenuation of TGF-β1-induced α-SMA mRNA” value in assay [3] (HFL1, 48 h, 0.1–10 µg/mL) is reported as “significantly reduced by 0.1–10 µg/mL peptide at 48 h”; in [3] (HFL1, 72 h, 10 µg/mL), “only 10 µg/mL was sufficient for inhibition of expression at 72 h”. For the same sequence, in assay [4], the VCAM1 total protein entry is “remained unaffected”. Besides, the “TGF-β1-driven EDA-FN total protein increase” value in the assay on EDA-FN is recorded as “marginally, but significantly, attenuated”. In addition, in assay [5], the “MMP9 mRNA expression” value was “attenuated”. The “TGF-β1 mRNA expression” value in [6] was “attenuated”. For the same sequence, the “HIC5 mRNA expression” value in assay [7] is “attenuated”. For the same sequence, in assay [8], the “MRTFA mRNA expression” value is on record as “attenuated”. The “collagen type III mRNA expression” value is on record as “all inhibited” with Col3a1 mRNA (72 h, TGF-β1 + AF38Pep) and “significant attenuation” in the assay on Col3a1 mRNA (by 48 h, vs TGF-β1-only). The “fibronectin mRNA expression” value in the assay with Fn1 mRNA (72 h, TGF-β1 + AF38Pep) was “all inhibited”; with Fn1 mRNA (by 48 h, vs TGF-β1-only), “significant attenuation”. Also, the “EDA-FN splice variant mRNA expression” value with Eda-Fn1 mRNA (72 h, TGF-β1 + AF38Pep) is recorded as “all inhibited”; in the assay on Eda-Fn1 mRNA (by 48 h, vs TGF-β1-only), “significant attenuation”. Further, in assay [9], the “total collagen synthesis relative to TGF-β1 only” value was “approximately 60%”.
